“Also recorded” adds a separate entry of the source. Where two headings read alike, the source gives them in different places. Marks after values point to notes of the source that are not given here.
Experiments:
[1] = tested on: RN 4220 S. aureus, plasmid pIP 855; type: cell-based; details: without substance 1.8
plasmid = assay: In vitro experiments for antiplasmid effect (plasmid eliminating ability); type: cell-based; details: for Plasmid eliminating ability: in concentration of 50 μg/ml; for Plasmid eliminating ability / Eliminating ability (in words): in vitro
From the text: The elimination of R-plasmids and F′lac plasmids, as well as inhibition of transmission of R-plasmid transfer were studied.
These are the compounds under mark FC-1181, FC-1186 and Sila-439. The compound sila-429 (75%) was compared against three representatively antibiotic resistant strains of bacteria, as follows: the polyresistant Acinetobacter anitratus, the resistant to gentamycine staphylococcus aureus and the Methycilline resistant Staphylococcus aureus strains.
(§1) We made a dilution of 10^−4 from a preliminary culture of 16 hours of E. coli strains containing R-factor, and dosed 0.05 ml therefrom into a broth culture medium MTE of 5 ml. We completed the cultures with the examined compounds in different concentrations and kept them at the temperature 37° C. during 24 to 48 hours without aeration. We made different dilutions from the cultures and streaked 0.1 ml of them onto EP agar plates. Having incubated them during the night we made a replication from the plates containing the cultures onto plates containing the corresponding antibiotics.
(§2) We made a dilution of 10^−4 from a culture of 16 hours of the bacteria strain K12 LE140 of E. coli and we inoculated 0.05 ml (1 to 5×10^3 cells) of it into 5 ml of broth culture medium MTE. The cultures with plasmid eliminating compounds added in different concentrations were incubated at 37° C. during 24 hours. We made dilutions from the contents of tubes, in which growth of bacteria were detected, then 0.1 ml of these dilutions were streaked onto EMB agar. The plates were incubated at 37° C. during 24 hours, then we counted the settlements of bacteria of types lac^+ and lac^−, which provides basis to calculate the percent of inhibition.

[2] = tested on: RN 4220 S. aureus, plasmid pIP 856; type: cell-based; details: without substance 2.3
[3] = tested on: RN 4220 S. aureus, plasmid pBI 109 PGL; type: cell-based; details: without substance 68.7
[4] = tested on: RN 4220 S. aureus, plasmid pCRG 1600; type: cell-based; details: without substance 2.1
[5] = tested on: E. coli K12 F′lac (PBR322) plasmid; type: cell-based
Procedure: as §1
The plates containing antibiotics were incubated at 37° C. during 24 hours then the settlements of bacteria on them were compared to those on the master plates and the requirement of nutrition of the bacteria was examined.

[6] = tested on: E. coli K 12 F′lac1 donor to E coliχ1037 recipient
Procedure: (§3) We made tenfold dilutions of fresh donor culture of E. coli C600 R144 drd-3 and of fresh recipient culture resistant to i^r and in some cases to nalid-x acid of E. coli K12 W1 at optical density of 0.4 ([…]), then we mixed together 1.0 ml of donor culture and 1.0 ml of recipient culture and kept the samples at the temperature 37° C. 0 to 24 hours in presence of the applied compounds.
(§4) As control the mixture of donor and recipient cultures of the same proportion was incubated.
(§5) We performed experiments of two types to clarify the manner of action. The donor cells were previously treated during 5 minutes with the compound to be examined being in corresponding concentration, and the recipient cells were added thereafter in the experiments of one type The compounds to be examined were added 5 minutes after mixing together the donor and recipient cultures in the experiments of the other type. The target of our examinations was the inhibition of the conjugated transfer at the formed pairs. We made tenfold dilutions of the samples with physiological saline solution, the formed pairs of cells were divided by shaking during 1 minute then we made following dilutions where no more resistance transfer passed (see. Beverley and fellow-workers, 1981).
(§6) We streaked quantities of 0.1 ml form the dilutions onto MTE agar plates containing 50 μg/ml of kanamycine and onto plates containing 500 μg/ml of sodium azide to determine the number of recombinants. The number of donor bacteria was established only on the culture medium containing kanamycine, the number of recipient ones was established only on the culture medium containing sodium azide. The plates were kept during 48 hours at 37° C.

[7] = tested on: E. coli K12 J5-3 (R16) donor to E. coliχ1037 recipient; details: donor E. coli K12 J5-3 (R16)
Procedure: as §3, §4, §5, §6

[8] = tested on: E. coli K12 J5-3 (R386) donor to E. coliχ1037 recipient; details: donor E. coli K12 J5-3 (R386)
Procedure: as §3, §4, §5, §6

[9] = tested on: E. coli K12 J5-3 (R27) donor to E. coliχ1037 recipient; details: donor E. coli K12 J5-3 (R27)
Procedure: as §3, §4, §5, §6

[10] = tested on: E. coli K12 F′lac2 donor to E. coliχ1037 recipient
Procedure: as §3, §4, §5, §6

[11] = tested on: F′lac plasmid of E. coli K12; type: cell-based
Procedure: as §2

E. coli = assay: Bacteriostatic effect (MIC), serial dilution in liquid culture medium; type: cell-based
[12] = tested on: Staphylococcus aureus (resistant to gentamycine)
Procedure: (§7) The bacteriostatic effect was inspected on a liquid culture medium using method of serial dilution. We inoculated 0.05 ml of culture of the examined bacteria being in exponential phase (i.e. of optical density 0.4) in dilution by 10^−4 into broth culture medium MTE of 5 ml. The culture of E. coli of optical density 0.4 contained 4.1 to 5.2×10^8, the one of Staphylococcus aureus of similar density contained 2.2 to 8.2×10^7 settlement building units per ml. […] We examined thereafter the smallest concentration of each compound, which still inhibits the proliferation of the identical number of bacteria. The examinations for the antiplasmid effect could be begun after having been obtained the mentioned date, because these effects can be detected only at values lower than MIC.
(§8) The previously established MIC (minimal inhibiting concentration) values are as follows: […]

[13] = tested on: Acinetobactes anitratus (resistant to Chlorocid)
Procedure: as §7, §8

[14] = tested on: Escherichia coli (resistant to Chlorocid)
Procedure: as §7, §8

mice = tested on: mice
Procedure: We used the usual dose of inoculation i.e. 0,2 ml per 10 g weight. […] The exact definition of this value should be done in an institute dealing with toxicology and clinical pharmacology.

[15] = concentration of elimination 18 mg/ml
[16] = second line for FC-2006/C, concentration of elimination not given
[17] = concentration of elimination 62,5 mg/ml
[18] = concentration of elimination 312, mg/ml
[19] = concentration of elimination 25 mg/ml
[20] = concentration of elimination 33 mg/ml
[21] = dose of 500 mg/kg, intraperitoneal, 5 mice

In the case of “4(dimethyl-n-butyl-silil-methyloxy)-benzoic acid-(3-pyridyl)-methylester-methoiodide [FC-2006/C]”, the “Frequency of elimination (%)” value ([1]; plasmid pIP 855, 9.5 μg/ml) is reported as 69.2%, the Plasmid eliminating ability (plasmid) is reported as “outstanding plasmid eliminating ability” and the “Eliminating ability (in words)” value (plasmid) is reported as “good eliminating ability”. The Eliminating effect (plasmid; only to one E. coli plasmid) was roughly 100%, the “Frequency of elimination (%)” value ([2]; plasmid pIP 856, 9.5 μg/ml) was 75.1% and the “Frequency of elimination (%)” value ([3]; plasmid pBI 109 PGL, 9.5 μg/ml) was 94.4%. The “Frequency of elimination (%)” value ([4]; plasmid pCRG 1600, 9.5 μg/ml) was 32.6%, the “Frequency of elimination (%) ApTC” value [5, 15] was 0% and the “Frequency of elimination (%) TC” value [5, 15] was 0%. For the same molecule, the “Frequency of elimination (%) ApTC” value [5, 16] was 0%, the “Frequency of elimination (%) TC” value [5, 16] was 0% and the Frequency of transfer ([6]; donor E. coli K 12 F′lac1, in concentration of 24.7 μg/ml, without substance 0.6 × 10^−6) was 2.2 × 10^−6. For the same molecule, the Frequency of transfer ([7]; in concentration of 24.7 μg/ml, without substance 0.3 × 10^−1) was 0.3 × 10^−3, the Frequency of transfer ([8]; in concentration of 24.7 μg/ml, without substance 0.5 × 10^−1) was 0.9 × 10^−2 and the Frequency of transfer ([9]; in concentration of 24.7 μg/ml, without substance 0.2 × 10) was 0.2 × 10^−1. The Frequency of transfer ([10]; donor E. coli K12 F′lac2, in concentration of 24.7 μg/ml, without substance 0.6 × 10^−6) was 3 × 10^−6, the “Frequency of elimination (%) Lac” value [11, 15] was 0% and the “Frequency of elimination (%) Lac” value [11, 16] was 0%. The MIC (E. coli) was 25 mg/mL.
CC[n+]1c(-c2ccccc2)c2cc(N)ccc2c2ccc(N)cc21 [Ethidium bromide, reference compound] was tested, and the “Frequency of elimination (%)” value ([1]; plasmid pIP 855, 1.95 μg/ml) was 9.4%, the “Frequency of elimination (%)” value ([2]; plasmid pIP 856, 1.95 μg/ml) was 12.3% and the “Frequency of elimination (%)” value ([3]; plasmid pBI 109 PGL, 3.9 μg/ml) was 88.2%. The “Frequency of elimination (%)” value ([4]; plasmid pCRG 1600, 62.5 μg/ml) was 2.8%, the “Frequency of elimination (%) ApTC” value [5, 17] was 24% and the “Frequency of elimination (%) TC” value [5, 17] was 30%. For the same molecule, the “Frequency of elimination (%) ApTC” value [5, 18] was 0%, the “Frequency of elimination (%) TC” value [5, 18] was 10% and the “Frequency of elimination (%) Lac” value [11, 17] was 0%. For the same molecule, the “Frequency of elimination (%) Lac” value [11, 18] was 0%.
For CCCC[Si](C)(C)COc1ccc(C(=O)OCCC[N+](C)(C)C)cc1.[I-] [FC-2012, 4-(dimethyl-n-butyl-silil-methyloxy)-benzoic acid-3-dimethylamino-propyl-ester-methoiodide], the “Frequency of elimination (%)” value ([1]; plasmid pIP 855, 7.8 μg/ml) was 41.9%, the “Eliminating ability (in words)” value (plasmid) was “good eliminating ability” and the “Frequency of elimination (%)” value ([2]; plasmid pIP 856, 7.8 μg/ml) was 34.6%. The “Frequency of elimination (%)” value ([3]; plasmid pBI 109 PGL, 7.,8 μg/ml) was 88.0%, the “Frequency of elimination (%)” value ([4]; plasmid pCRG 1600, 7.8 μg/ml) was 10.1% and the “Frequency of elimination (%) ApTC” value [5, 19] was 2%. The “Frequency of elimination (%) TC” value [5, 19] was 10%, the “Frequency of elimination (%) ApTC” value [5, 20] was 27% and the “Frequency of elimination (%) TC” value [5, 20] was 58%. For the same molecule, the Frequency of transfer ([6]; donor E. coli K 12 F′lac1, in concentration of 15 μg/ml, without substance 0.8 × 10^−6) was 0**, the Frequency of transfer ([7]; in concentration of 30 μg/ml, without substance 1.2 × 10^−2) was 1 × 10^−3*** and the Frequency of transfer ([8]; in concentration of 30 μg/ml, without substance 0.4) was 0.6 × 10^−1***. For the same molecule, the Frequency of transfer ([9]; in concentration of 30 μg/ml, without substance 2.5 × 10^−4) was 2.3 × 10^−4***, the Frequency of transfer ([10]; donor E. coli K12 F′lac2, in concentration of 15 μg/ml, without substance 0.2 × 10^−5) was 0** and the “Frequency of elimination (%) Lac” value [11, 19] was 0%. The “Frequency of elimination (%) Lac” value [11, 20] was 0% and the MIC (E. coli) was 39 mg/mL.
In the case of C[N+](C)(C)CCOC(=O)c1ccc(OCCC[Si](C)(C)C)cc1.[I-] [Sila-439, 4-(3-trimethyl-silil-propyloxy)-benzoic acid-2-dimethyl-amino-ethyl-ester-methoiodide], the “MIC (minimal inhibiting concentration)” value [12] is reported as 180 μ/ml, the “MIC (minimal inhibiting concentration)” value [13] is reported as 0.08 mg/mL and the “MIC (minimal inhibiting concentration)” value [14] is reported as 0.07 mg/mL. For the same molecule, the “Concentration at which the antiplasmid effect manifests” value (plasmid) was 40 µg/mL, the Plasmid eliminating ability (plasmid) was “outstanding plasmid eliminating ability” and the “Eliminating ability (in words)” value (plasmid) was “extraordinary good eliminating ability; also recorded: very good plasmid elimination effect”. For the same molecule, the “Antiplasmid effect in in vitro experiments” value (plasmid; three compounds effective from 36 studied) was “effective”, the “Toxicity (i.p), mice alive per mice inoculated” value (mice; 50 mg/kg (0.01 ml/mouse) i.p., 2 hours) was 5/5 and the “Toxicity (i.p), mice alive per mice inoculated” value (mice; 50 mg/kg (0.01 ml/mouse) i.p., 6 hours) was 5/5. For the same molecule, the “Toxicity (i.p), mice alive per mice inoculated” value (mice; 50 mg/kg (0.01 ml/mouse) i.p., 9 hours) was 5/5, the “Toxicity (i.p), mice alive per mice inoculated” value (mice; 50 mg/kg (0.01 ml/mouse) i.p., 12 hours) was 5/5 and the “Toxicity (i.p), mice alive per mice inoculated” value (mice; 50 mg/kg (0.01 ml/mouse) i.p., 24 hours) was 5/5. The “Toxicity (i.p), mice alive per mice inoculated” value (mice; 500 mg/kg (0.1 ml/mouse) i.p., 2 hours) was 0/5, the “Condition of the mice after inoculation” value (mice; dose of 50 mg/kg, intraperitoneal) was “lived and moved vividly exactly like those in the control group” and the Mortality after inoculation (mice; [21]) was “all the five mice died”. The Spasms after inoculation (mice; [21]) was “spasms occurred in the 5 inoculated mice in two minutes”.

— US6765105B2, “Compound and pharmaceutical composition of antiplasmid effect and the preparation thereof” (priority 2000, dated 2004)
